Series [1] deals with normal human bronchial epithelial cells (NHBEs). The settings on record: NHBEs treated with 100 mM alcohol.
Series [2] concerns C57BL/6 mice challenged with a lethal dose of lipopolysaccharide (LPS). In words: LPS-induced lung injury mouse model of ARDS, survival. Format: in vivo. Here is the method:
C57BL/6 mice were pretreated with either 5.76 mg/kg aCT1 peptide, 5.76 mg/kg control peptide, or PBS vehicle control prior to inoculation with a lethal dose (35 mg/kg) of LPS. For FIG. 2A, n=20-22/group and p<0.0001 by Log-rank Mantel-Cox test; for FIG. 2B, n=5-8/group and p<0.001 by Log-rank Mantel-Cox test. Doses are reported as presented dose, with estimated animal body weight of 25 grams.
Studies were undertaken to assess whether delivery of aCT1 to the respiratory tract in animal models of ARDS would reduce epithelial and endothelial breakdown, thereby preserving the air-liquid barrier while preventing fluid accumulation and reducing immune cell infiltration, resulting in the amelioration of ARDS pathology and preserving lung function to improve survival. Using a well characterized mouse model of ARDS, we investigated whether aCT1 applied directly to the lungs could inhibit severe endotoxin induced lung injury. C57BL/6 mice were intranasally challenged with a lethal dose of lipopolysaccharide (LPS) and were treated with aCT1 immediately prior to LPS administration (FIG. 2A), or six (6) hours post LPS exposure (FIG. 2B).

The nature of series [3]: Intravenous (bolus) toxicity in rats. Particulars: rat, in vivo, intravenous administration, read-out: Maximum Tolerated Dose (clinical signs observed). Here is the method: Intravenous administration (bolus) of aCT1 in rats was well tolerated and a 5 mg/kg dosing level was established as the no-observable-adverse-effect level (NOAEL). Clinical signs were only observed at aCT1 administration levels that are well above the therapeutic range of efficacy, following intravenous administration of aCT1 at ≥10 mg/kg (Maximum Tolerated Dose). The results of these studies uniformly support aCT1 tolerability when delivered locally and systemically via various routes.

The subject of series [4] is normal human bronchial epithelial (NHBE) cells. In words: Trans-epithelial electrical resistance (TER) after H2O2 exposure. Particulars: NHBE monolayers; aCT1 pre-treatment; 500 mM H2O2; 72 hours. Format: cell-based. Here is the method:
(n=3/group; p-values reported at 72 hours compared to H2O2).
(§1) To determine if aCT1 treatment preserves junctional integrity in human lung cells, human bronchial epithelial cells (NHBEs) were grown as confluent monolayers on Transwell inserts and trans-epithelial electrical resistance (TER) recorded. TER readings measure electrical resistance across a cell monolayer and provide a quantitative metric of intercellular junction integrity.

The test system is the same in series [5]. In words: Trans-epithelial electrical resistance (TER) after LPS exposure. Format: cell-based. The settings on record: aCT1 pre-treatment, 10 μg LPS, 72 hours. How it is done: Normal human bronchial epithelial (NHBE) cells were exposed to 10 μg LPS. […] (n=3/group; p-values reported at 72 hours compared to LPS).
as §1

For series [6], the system named is cecal ligation and puncture (CLP) mouse model of sepsis. The experiment in a line: Cecal ligation and puncture (CLP) mouse model of sepsis. Type of series: in vivo. The text has this: 3A. For FIG. 3A, n=7-9/group and p=0.052 by Log-rank Mantel-Cox test; for FIG. 3B, n=8/group and p<0.05 by Log-rank Mantel-Cox test. Doses are reported as administered dose, with estimated animal body weight of 25 grams.
Representative images are shown.

Series [7] has as its system human subjects. The text has this: (§2) Clinical trials have been undertaken to assess safety of topical delivery of aCT1.
For series [8] the following is noted: human.
Excerpt: as §2

The subject of series [9] is ocular corneal injury models. The settings on record: cited from earlier work.

“Also recorded” adds a separate entry of the source. Peptide text beside a SMILES is read from it. * marks the point of attachment. Biotin = O=C1N[C@H]2[C@H](CS[C@H]2CCCCC(=O)*)N1; Ahx = NCCCCCC(=O)O

`CC[C@H](C)[C@H](NC(=O)[C@H](CCC(=O)O)NC(=O)[C@H](CC(C)C)NC(=O)[C@H](CC(=O)O)NC(=O)[C@H](CC(=O)O)NC(=O)[C@@H]1CCCN1C(=O)[C@H](CCCNC(=N)N)NC(=O)[C@@H]1CCCN1C(=O)[C@H](CCCNC(=N)N)NC(=O)[C@H](CCCCN)NC(=O)[C@H](CCCCN)NC(=O)[C@H](Cc1c[nH]c2ccccc12)NC(=O)[C@@H]1CCCN1C(=O)[C@H](CCCCN)NC(=O)[C@H](CCCNC(=N)N)NC(=O)[C@H](CCCNC(=N)N)NC(=O)[C@H](CC(N)=O)NC(=O)[C@@H]1CCCN1C(=O)[C@H](Cc1ccccc1)NC(=O)[C@H](Cc1c[nH]c2ccccc12)NC(=O)[C@@H](NC(=O)[C@H](CCCCN)NC(=O)[C@@H]1CCCN1C(=O)[C@H](CCC(N)=O)NC(=O)[C@H](CCCNC(=N)N)NC(=O)CCCCCNC(=O)CCCC[C@@H]1SC[C@@H]2NC(=O)N[C@@H]21)[C@@H](C)CC)C(=O)O` [aCT1] ({Biotin-Ahx}-RQPKIWFPNRRKPWKKRPRPDDLEI-OH; N-terminus and C-terminus assumed): the “electrical resistance (barrier function)” value in series [1] is listed as “improved electrical resistance”. Moreover, the survival entry was “provides significant protection against lipopolysaccharide (LPS)-induced mortality; also recorded: significantly improved survival” in series [2] (lethal LPS 35 mg/kg intranasal, 5.76 mg/kg aCT1 intranasal immediately prior to LPS, p<0.0001 Log-rank); “provides significant protection against lipopolysaccharide (LPS)-induced mortality; also recorded: significantly improved survival” in series [2] (lethal LPS, aCT1 six hours post LPS, p<0.001 Log-rank); “prolonged survival” in [6] (14.34 mg/kg aCT1 intravenously immediately after CLP, p=0.052 Log-rank); “prolonged survival” in series [6] (aCT1 intravenously 6 hours post CLP, p<0.05 Log-rank). In series [3], the MTD is not below 10 mg/kg. Further, in series [4], the “TER / intercellular junction integrity” value is recorded as “stabilized intercellular junctions; also recorded: significantly increased TER readings”. Moreover, the “TER / barrier integrity” value in series [5] was “stabilized barrier integrity; also recorded: significantly improved TER readings”. Moreover, the “immune cell infiltration and alveolar edema (H&E lung histopathology)” value in [6] (14.34 mg/kg aCT1 immediately after CLP, lungs at 12 hours post CLP) was “significantly decreased immune cell infiltration and alveolar edema”. Also, the “immunogenicity (anti-aCT1 antibodies)” value in series [7] (any preclinical study or clinical trial) was “not immunogenic”. Moreover, the systemic exposure entry in series [7] (pharmacokinetic studies in clinical trials, topical) is reported as “no systemic exposure”. For the same compound, the “drug related adverse events” value in series [7] (topical delivery, over 482 human subjects) is listed as “no drug related adverse events”. In [8], this compound displayed a half-life of 15 to 20 min. In addition, the inflammatory signaling molecules entry in series [9] is “reduced inflammatory signaling molecules such as IL-6, IL-1β, TNFα, Cox-2, MMP-9, and VEGF”.

The half-life is how long it takes for the measured level to halve. Read a low half-life as rapid decline.

These data come from patent publication US20250281574A1 (priority 2022, published 2025).
